In patent publication US20090162372A1, “FIBRONECTIN ED-B ANTIBODIES, CONJUGATES THEREOF, AND METHODS OF USE” (Medarex, Inc., priority 2007, published 2009):

B1: anti-ED-B: human monoclonal antibody 1C5 binding fibronectin ED-B, VH SEQ ID NO: 7, VL SEQ ID NO: 8; naked antibody (antibody, listed as Homo sapiens, V domains shown)
VH: EVQLVESGGGLVQPGGSLRLSCAASGFTFSSYSMNWVRQAPGKGLEWVSYISSSSRAIYYADSVKGRFTISRDNAKNSLYLQMNSLRDEDTAVYYCARARYFDWLWYYWGQGTLVTVSS
VL: EIVLTQSPGTLSLSPGERATLSCRASQSVSSSYLAWYQQEPGQAPRLLIYGASSRATGIPDRFSGSGSGTDFTLTISRLEPEDFAVYYCQQRSNWPPTFGQGTKVEIK

Tests used:
[1] = experimental animals; cited from earlier work
[2] = system: LNCaP/prostate stroma coculture tumors; test: Efficacy against LNCaP/prostate stroma coculture tumors in SCID mice (tumor volume); type: in vivo, CB17.SCID mice; settings: naked antibody 30 mg/kg IP SD on Day 0; to Day 62; FIG. 4
Method: In order to determine the efficacy of anti-RG-1 and ED-B-cytotoxin conjugates (using the cytotoxin/linker of formula (m)), LNCaP xenografts were performed as follows: 120 CB17.SCID mice were each subcutaneously injected with 2 million LNCaP cells and 1 million prostate stroma cells (cat# CC-2508, Cambrex Bio Science Walkersville, Inc, Walkersville, Md.) resuspended in 0.2 ml of PBS/Matrigel (1:1) (BD Bioscience) at the flank region. This LNCaP/Stroma model expresses high levels of PMSA on the cell surface, high levels of RG-1 in the stroma, and low levels of ED-B in the stroma. CD70 is used as an isotype control as the xenographs are negative for CD70. Mice were weighed and measured for tumors three dimensionally using an electronic caliper once weekly after implantation. Tumor volumes were calculated as height×width×length/2. Mice with tumors averaging 50 mm^3 were randomized into 16 treatment groups of seven mice on Day-1 and mice were treated intraperitoneally with vehicle, antibody, or antibody-cytotoxin conjugate according to the dosing regimen described in Table 1 on Day 0, Studies were terminated at Day 62.

Row | Molecule | delayed death [1] | effect on tumor growth (median tumor volume) [2]
1 | COc1c(O)c2c(c3cc(C(=O)N4CCc5c4c(O)c(OC)c4[nH]c(C(=O)N6CC7CC78C6=CC(=O)c6[nH]cc(C)c68)cc54)[nH]c13)CCN2C(N)=O (centres unmarked) [CC-1065] | causes delayed death in experimental animals | –
2 | B1 | – | no inhibitory effect on tumor growth
